These compounds were tested against T1, Interstitial collagenase (Homo sapiens, UniProt P03956) (assay: Inhibition of semi-purified human lung fibroblast collagenase).
T1 sequence (P03956 whole entry): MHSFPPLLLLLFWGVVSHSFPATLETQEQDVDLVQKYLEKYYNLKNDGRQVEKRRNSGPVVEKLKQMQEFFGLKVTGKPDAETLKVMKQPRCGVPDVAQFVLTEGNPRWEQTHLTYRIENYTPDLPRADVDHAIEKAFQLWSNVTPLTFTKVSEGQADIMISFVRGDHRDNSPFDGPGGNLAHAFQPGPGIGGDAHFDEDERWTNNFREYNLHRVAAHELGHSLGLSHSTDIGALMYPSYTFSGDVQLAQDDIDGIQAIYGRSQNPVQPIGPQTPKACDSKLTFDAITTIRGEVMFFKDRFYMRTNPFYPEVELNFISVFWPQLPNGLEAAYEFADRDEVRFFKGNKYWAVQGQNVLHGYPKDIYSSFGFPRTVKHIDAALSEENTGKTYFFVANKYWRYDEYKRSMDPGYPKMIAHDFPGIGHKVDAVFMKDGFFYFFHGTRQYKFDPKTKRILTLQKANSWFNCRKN

SMILES | IC50 [nM]
CC[C@H](N[C@@H](CC(C)C)C(=O)NC1CCCCNCCCCCNC1=O)P(=O)(O)O (stereo partly specified) | 460
CC[C@H](N[C@@H](CC(C)C)C(=O)NC1CCCNCCCCCCNC1=O)P(=O)(O)O (stereo partly specified) | 227
CC[C@H](N[C@@H](CC(C)C)C(=O)NC1CCCCNCCCCCCNC1=O)P(=O)(O)O (stereo partly specified) | 307
CC[C@H](N[C@@H](CC(C)C)C(=O)NC1CCCCNCCCNC1=O)P(=O)(O)O (stereo partly specified) | 2230
CC[C@H](N[C@@H](CC(C)C)C(=O)NC1CCCCN(C)CCCCCNC1=O)P(=O)(O)O (stereo partly specified) | 510
CC(C)CC(CC(=O)NO)C(=O)NC1CCCCCCCCCCNC1=O (stereo unspecified) | 26
CC(C)C[C@@H](C(=O)NC1CCCCCCCCCCNC1=O)[C@@H](S)CC(=O)OC(C)C (stereo partly specified) | 51
CC(C)CC(C(=O)NC1CCCCNCCCCCNC1=O)[C@@H](S)CC(=O)OC(C)C (stereo partly specified) | 44
CCC(N[C@@H](CC(C)C)C(=O)NC1CCCCCCCCCCNC1=O)P(=O)(O)O (stereo partly specified) | 183
CC(C)CC(CC(=O)NO)C(=O)N[C@H]1CCCCNCCCCCNC1=O (stereo in doubt; 17a) | 12
CC(C)CC(CC(=O)NO)C(=O)N[C@H]1CCCCNCCCCCNC1=O (stereo in doubt; 17b) | 82

From ChEMBL document CHEMBL1128068, “Inhibitors of human collagenase: dipeptide mimetics with lactam and azalactam moieties at the position” (Bioorg Med Chem Lett, 1995)
